Key:
[1] = tested on: Mouse Collagen-Induced Arthritis (mCIA); experiment: Therapeutic mouse collagen-induced arthritis (mCIA) model; format: in vivo, Male DBA/J mice; details: mice, dosing day 34 through day 49
Excerpt: Mouse Collagen-induced arthritis is a commonly used chronic, preclinical model of rheumatoid arthritis in which joint swelling and bone destruction occur following immunization with type II collagen. Reduction of disease incidence and severity has been shown previously to be predictive of disease-modification and signs and symptoms mitigation, respectively, in a clinical setting.
In the therapeutic mCIA model, induction of disease incidence and severity was synchronized via LPS stimulation. Male DBA/J mice were immunized with 100 ug of bovine type II collagen (bCII) on day 0. All mice received an intraperitoneal injection of 20 μg of LPS on day 28 and disease was allowed to develop through day 34. At day 34, all mice had disease (incidence=100%) with an average severity score of seven. Dosing of compounds was initiated in the therapeutic mode on day 34 and continued through day 49. Different treatments were compared by measuring the decrease in incidence (i.e., resolution of disease) and the decrease in severity of paw swelling over time.

[2] = tested on: TNFα production in human whole blood; experiment: Ex vivo LPS-stimulated human whole blood, TNFα; format: cell-based; details: LPS 100 ng/ml, 22 hours, mean of two donors
Procedure: (§1) Venous blood from human donors was collected as 10 ml aliquots in tubes containing sodium heparin (BD Vacutainer from Becton Dickinson and Company, Franklin Lakes, N.Y.). Blood was added to sterile polystyrene round bottom 96-well tissue culture plates (Corning Costar) at 100 μl/well, omitting the outside wells. Media (RPMI Medium 1640 with L-glutamine, Invitrogen Corporation, Carlsbad, Calif.) was added to the blood in 90 μl aliquots for a total volume of 190 μl. Outside wells were filled with 200 μl of media. Blood was placed in a humidified 37° C. incubator with 5% CO2 while compounds were prepared (nearly 60 minutes).
(§2) Compounds were prepared from 10 mM stock solutions in dimethylsulfoxide (DMSO, Sigma-Aldrich). […] Final DMSO and ethanol concentrations in the assay were 0.1% and 1.5%. The samples were gently triturated twice to mix and replaced in the incubator. LPS stock (E. coli serotype 0111:B4, Sigma-Aldrich), stored in aliquots of 100 μg/ml in RPMI at −20° C., was diluted 1/50 in RPMI to make a working stock solution. After 60 minutes of incubation, 10 μl of the prepared LPS working stock was added to the blood to a final concentration of 100 ng/ml, omitting wells to be used as negative control. The samples were again gently triturated and the plates incubated overnight for 22 hours. Following incubation, the blood was centrifuged at 1500×g for 5 minutes and the plasma removed to either freeze at −20° C. or assay for cytokine release.
(§3) IL-1β, IFNγ, IL-6, and TNFα protein levels were measured using Meso Scale assay kits (Meso Scale Discovery, Gaithersburg, Md.). Reagents were allowed to come to room temperature. Meso Scale plates were blocked with 30 μl of human plasma/serum assay diluent with gentle shaking for 60 minutes at room temperature. Plates were washed 3× with wash buffer (PBS, Invitrogen Corporation, with 0.05% Tween-20, Sigma-Aldrich). Calibrators for standard curves were prepared in human plasma/serum assay diluent as a […] serial dilution to achieve final concentrations ranging from 50000 pg/ml to 3.2 pg/ml. Samples and calibrators were added at 20 μl/well, then incubated at room temperature with gentle shaking for 90 minutes. Plates were again washed 3 times with wash buffer. Detection antibody was diluted in human plasma/serum antibody diluent to 1 μg/ml and added to the plate at 20 μl/well. Plates were incubated as before for 60 minutes and washed again. Read Buffer T<4×) was diluted 1:1 with mqH2O to 2 times concentration and 150 μl added to each well. Plates were analyzed on the SECTOR Imager 6000 (Meso Scale Discovery) to generate raw signal values.
(§4) IL-1β, IFN-γ, IL-6, and TNFα sample values were verified to be within the calibrator standard curves. Individual values were compared to positive and negative controls (vehicle treated blood with LPS and vehicle treated blood without LPS, respectively) to generate % inhibition. Triplicate values were averaged for each donor. The values for two donors were averaged (only one donor was used for IL-1β) and graphed using 4-parameter fit curves in the GraFit 5.0.11 application.

[3] = tested on: IFNγ production in human whole blood; experiment: Ex vivo LPS-stimulated human whole blood, IFNγ; format: cell-based; details: LPS 100 ng/ml, 22 hours, mean of two donors
Procedure: as §1, §2, §3, §4

LPS-induced serum TNFα = LPS-induced serum TNFα suppression, 28-day repeat dose mouse model; format: in vivo, Swiss Webster female mice; details: mice, oral gavage 28 days
Procedure: The compounds were weighed and suspended in a vehicle of 0.5% methylcellulose/0.025% tween 20 (Sigma-Aldrich, St. Louis, Mo.). Compound suspensions were homogenized using a Polytron PT-3100 tissue homogenizer to create a very fine suspension and were then sonicated for 10 minutes using a water bath sonicator. Aliquots of each suspension were made for daily dosing at 0.2 ml/dose. Swiss Webster female mice, 10-12 weeks old, 28-29 grams, (Taconic, Germantown, N.Y.) were used in accordance with the guidelines of the Institutional Animal Care and Use Committee and in accordance with NIH guidelines on laboratory animal welfare. Mice were acclimated in the Pfizer animal facility for three to seven days prior to being utilized in a study. […] Each treatment group contained 5-10 mice. To establish a dosing regimen for the studies, a pilot pharmacodynamic time course experiment was conducted to quantify TNFα repression after a single ED80 dose.
Body weights were measured on the first and last day of each experiment. Blood samples were obtained after three weeks of dosing for a steady-state pharmacokinetic (PK) analysis. To assess compound effects on LPS-induced TNFα, all mice received an intraperitoneal injection of LPS (Salmonella typhosa, L-7895; Sigma-Aldrich, St. Louis) 2.5 hr after the last dose on day 28. Mice were sacrificed 90 minutes after LPS administration. Serum samples were quantified for osteocalcin and TNFα using the multiplex assays (Linco Research, Inc, St. Charles, Mo.; Luminex 100, Austin, Tex.). Samples were diluted 1:20 and the assay was run according to manufacturer's instructions. The osteocalcin standard was purchased separately (Biomedical Technologies Inc., Stoughton, Mass.). Mice were fasted for 4 hours before serum was collected for TNFα, and osteocalcin levels. For each experiment, outliers were detected by calculating the number of standard deviations from the mean of the group. If the value being examined was more than 2.5 standard deviations from the mean, it was excluded from the rest of the calculations.
The individual mouse percent inhibition values were fit to a four-parameter logistic model using the dose mean for each group.
ED50 and ED80 values were obtained for the various endpoints using a four-parameter logistic fit. For compounds which were tested multiple times, ED50 and ED80 values were obtained using four-parameter logistic fits of the combined data from multiple experiments.

In the case of `C[C@]12C=CC(=O)C=C1CC[C@@H]1[C@@H]2[C@@H](O)C[C@@]2(C)[C@H]1CC[C@]2(O)C(=O)CO` [Prednisolone], the “Therapeutic mCIA (ED80 dose)” value [1] is reported as 5.5 mg/kg, the inhibition at 0.00137174 µM ([2]; 1.371742 nM) is reported as 6.61% and the inhibition at 0.00411523 µM ([2]; 4.115226 nM) is reported as 5.31%. It also gave an inhibition at 0.0123457 µM ([2]; 12.34568 nM) of 12.9%, an inhibition at 0.037037 µM ([2]; 37.03704 nM) of 27.7% and an inhibition at 0.111111 µM ([2]; 111.1111 nM) of 62.4%. It also gave an inhibition at 0.333333 µM ([2]; 333.3333 nM) of 89%, an inhibition at 1 µM ([2]; 1000 nM) of 93.9% and an inhibition at 0.000457247 µM ([3]; 0.457247 nM) of 4.93%. For the same compound, the inhibition at 0.00137174 µM ([3]; 1.371742 nM) was 10.9%, the inhibition at 0.00411523 µM ([3]; 4.115226 nM) was 5.16% and the inhibition at 0.0123457 µM ([3]; 12.34568 nM) was 25.7%. For the same compound, the inhibition at 0.037037 µM ([3]; 37.03704 nM) was 63.5%, the inhibition at 0.111111 µM ([3]; 111.1111 nM) was 95% and the inhibition at 0.333333 µM ([3]; 333.3333 nM) was 99.8%. The inhibition at 1 µM ([3]; 1000 nM) was 100% and the “TNFα Suppression (ED80 dose)” value (LPS-induced serum TNFα) was 2.10 mg/kg.

From US7786097B2, “Tricyclic compounds, compositions and methods” (Pfizer Inc., priority 2007, dated 2010)
